For 30 compounds, EC50 results are on record in US20130210809A1, “NOVEL 2-AMINO-4-PYRAZOLYL-THIAZOLE DERIVATIVES AND THEIR USE AS ALLOSTERIC MODULATORS OF METABOTROPIC GLUTAMATE RECEPTORS” (priority 2010, published 2013).

A value given as a limit tells only on which side of the number the result lay.

T1 sequence (Q14833 33-912): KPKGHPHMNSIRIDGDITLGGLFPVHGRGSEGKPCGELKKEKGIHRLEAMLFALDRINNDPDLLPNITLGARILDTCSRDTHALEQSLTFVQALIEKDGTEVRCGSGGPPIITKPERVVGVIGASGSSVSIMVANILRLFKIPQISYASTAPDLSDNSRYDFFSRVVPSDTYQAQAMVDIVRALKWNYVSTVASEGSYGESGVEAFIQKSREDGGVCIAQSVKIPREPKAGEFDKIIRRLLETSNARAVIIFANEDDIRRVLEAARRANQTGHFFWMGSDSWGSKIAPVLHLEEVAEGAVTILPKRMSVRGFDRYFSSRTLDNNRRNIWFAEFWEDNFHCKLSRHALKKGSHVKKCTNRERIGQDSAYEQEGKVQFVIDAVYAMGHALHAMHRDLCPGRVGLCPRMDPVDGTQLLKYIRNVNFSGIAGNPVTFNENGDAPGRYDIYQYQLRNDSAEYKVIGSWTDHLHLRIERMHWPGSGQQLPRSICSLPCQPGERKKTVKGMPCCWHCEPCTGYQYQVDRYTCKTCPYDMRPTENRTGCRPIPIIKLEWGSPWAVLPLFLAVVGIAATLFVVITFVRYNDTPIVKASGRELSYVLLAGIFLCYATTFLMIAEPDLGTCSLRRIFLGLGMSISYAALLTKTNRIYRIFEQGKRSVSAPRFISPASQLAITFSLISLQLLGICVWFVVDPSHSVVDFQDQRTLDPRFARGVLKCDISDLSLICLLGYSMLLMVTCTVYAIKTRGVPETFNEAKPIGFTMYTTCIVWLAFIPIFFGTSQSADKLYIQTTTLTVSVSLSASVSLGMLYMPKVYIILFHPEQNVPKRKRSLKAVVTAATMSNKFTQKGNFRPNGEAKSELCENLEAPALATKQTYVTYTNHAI

The assay concerns the target T1, recombinant human mGluR4a receptors (Homo sapiens, UniProt Q14833).
T1 construct: expressed in transfected cells
The assay is described as follows: mGluR4 assay on HEK-expressing human mGluR4 (fluorescent cell based Ca2+ mobilization assay, FLIPR). The note with it: HEK-293 cells expressing hmGluR4; enhancement of EC25 glutamate response; mean of at least three independent experiments in duplicate; read-out: Ca^2+ Flux (mean EC50). The text has this: mGluR4 Assay on HEK-Expressing Human mGluR4
The compounds of the present invention are positive allosteric modulators of mGluR4 receptor. Their activity was examined on recombinant human mGluR4a receptors by detecting changes in intracellular Ca^2+ concentration, using the fluorescent Ca^2+-sensitive dye Fluo4-(AM) and a Fluorometric Imaging Plate Reader (FLIPR, Molecular Devices, Sunnyvale, Calif.).
The cDNA encoding the human metabotropic glutamate receptor (hmGluR4), (accession number NM_000841.1, NCBI Nucleotide database browser), was subcloned into an expression vector containing also the Hygromycin resistance gene. In parallel, the cDNA encoding a G protein allowing redirection of the activation signal to intracellular calcium flux was subcloned into a different expression vector containing also the Puromycin resistance gene. Transfection of both these vectors into HEK293 cells with PolyFect reagent (Qiagen) according to supplier's protocol, and hygromycin and puromycin treatment allowed selection of antibiotic resistant cells which had integrated stably one or more copies of the plasmids. Positive cellular clones expressing hmGluR4 were identified in a functional assay measuring changes in calcium flux in response to glutamate or selective known mGluR4 orthosteric agonists and antagonists. HEK-293 cells expressing hmGluR4 were maintained in media containing DMEM, dialyzed Fetal Calf Serum (10%), Glutamax™ (2 mM), Penicillin (100 units/mL), Streptomycin (100 μg/mL), Geneticin (100 μg/mL) and Hygromycin-B (40 μg/mL) and Puromycin (1 μg/mL) at 37° C./5% CO2.
Human mGluR4 HEK-293 cells were plated out 24 hours prior to FLIPR^384 assay in black-walled, clear-bottomed, poly-L-ornithine-coated 384-well plates at a density of 25,000 cells/well in a glutamine/glutamate free DMEM medium containing foetal bovine serum (10%), penicillin (100 units/mL) and streptomycin (100 μg/mL) at 37° C./5% CO2.
On the day of the assay, the medium was aspirated and the cells were loaded with a 3 μM solution of Fluo4-AM (LuBioScience, Lucerne, Switzerland) in 0.03% pluronic acid. After 1 hour at 37° C./5% CO2, the non incorporated dye was removed by washing cell plate with the assay buffer and the cells were left in the dark at it for six hours before testing. All assays were performed in a pH 7.4 buffered-solution containing 20 mM HEPES, 143 mM NaCl, 6 mM KCl, 1 mM MgSO4, 1 mM CaCl2, 0.125 mM sulfapyrazone and 0.1% glucose.
After 10 s of basal fluorescence recording, various concentrations of the compounds of the invention were added to the cells. Changes in fluorescence levels were first monitored for 180 s in order to detect any agonist activity of the compounds. Then the cells were stimulated by an EC25 glutamate concentration for an additional 110 s in order to measure enhancing activities of the compounds of the invention. EC25 glutamate concentration is the concentration giving 25% of the maximal glutamate response.
The concentration-response curves of representative compounds of the present invention were generated using the Prism GraphPad software (Graph Pad Inc, San Diego, USA). The curves were fitted to a four-parameter logistic equation:
(Y=Bottom+(Top−Bottom)/(1+10̂((Log EC50-X)*Hill Slope)
allowing the determination of EC50 values.
The Table 3 below represents the mean EC50 obtained from at least three independent experiments of selected molecules performed in duplicate.
Usually EC50 stands for the midpoint of the concentration-response curve. As to “3-(3-(2-(Pyrimidin-2-ylamino)thiazol-4-yl)-1H-pyrazol-4-yl)benzonitrile [Compound 1-43]”, the EC50 is less than 0.1 µM.

As for `Cc1ccnc(Nc2nc(-c3c[nH]nc3C(F)F)cs2)n1` [Compound 1-1, 4-(3-(Difluoromethyl)-1H-pyrazol-4-yl)-N-(4-methylpyrimidin-2-yl)thiazol-2-amine], the EC50 was less than 0.1 µM.

With `Cc1ccnc(Nc2nc(-c3c[nH]nc3-c3cccc(N4CCS(=O)(=O)CC4)c3)cs2)n1` [Compound 1-2, N-(4-Methylpyrimidin-2-yl)-4-(3-(3-(1,1-dioxido-4-thiomorpholinyl)phenyl)-1H-pyrazol-4-yl)thiazol-2-amine], the concentration for a half-maximal effect (EC50) lay in the range of 1 to 10 µM.

For the compound `Cc1ccnc(Nc2nc(-c3c[nH]nc3-c3ccccc3F)cs2)n1` [Compound 1-3, 4-(3-(2-Fluorophenyl)-1H-pyrazol-4-yl)-N-(4-methylpyrimidin-2-yl)thiazol-2-amine], the half-maximal effective concentration (EC50) was less than 0.1 µM.

For `Cc1ccnc(Nc2nc(-c3c[nH]nc3-c3cccc(C#N)c3)cs2)n1` [Compound 1-4, 3-(4-(2-(4-Methylpyrimidin-2-ylamino)thiazol-4-yl)-1H-pyrazol-3-yl)benzonitrile], the concentration giving a half-maximal response (EC50) was less than 0.1 µM.

Regarding `Cc1ccnc(Nc2nc(-c3c[nH]nc3-c3ccc(C(O)C(F)(F)F)cc3)cs2)n1` (stereo not drawn) [Compound 1-6, 2,2,2-Trifluoro-1-(4-(4-(2-(4-methylpyrimidin-2-ylamino)thiazol-4-yl)-1H-pyrazol-3-yl)phenyl)ethanol], the EC50 was in the range of 1 to 10 µM.

Regarding `Cc1ccnc(Nc2nc(-c3c[nH]nc3-c3cccc4c3CNC4=O)cs2)n1` [Compound 1-7, 4-(4-(2-(4-Methylpyrimidin-2-ylamino)thiazol-4-yl)-1H-pyrazol-3-yl)isoindolin-1-one], the 50% effective concentration (EC50) lay in the range of 1 to 10 µM.

On to `Cc1ccnc(Nc2nc(-c3c[nH]nc3-c3cnn4c3CCC4)cs2)n1` [Compound 1-8, 4-(3-(5,6-Dihydro-4H-pyrrolo[1,2-b]pyrazol-3-yl)-1H-pyrazol-4-yl)-N-(4-methylpyrimidin-2-yl)thiazol-2-amine], for which the EC50 is 1 to 10 µM.

For the compound `Cc1ccnc(Nc2nc(-c3c[nH]nc3-c3cccc(CN4CCOCC4)c3)cs2)n1` [Compound 1-9, N-(4-Methylpyrimidin-2-yl)-4-(3-(3-(morpholinomethyl)phenyl)-1H-pyrazol-4-yl)thiazol-2-amine], the EC50 fell in the range of 1 to 10 µM.

For the compound `Cc1ccnc(Nc2nc(-c3c[nH]nc3-c3cncc(Cl)c3)cs2)n1` [Compound 1-10, 4-(3-(5-Chloropyridin-3-yl)-1H-pyrazol-4-yl)-N-(4-methylpyrimidin-2-yl)thiazol-2-amine], the EC50 lay within 1 to 10 µM.

For the compound `COc1ccccc1-c1n[nH]cc1-c1csc(Nc2nccc(C)n2)n1` [Compound 1-11, 4-(3-(2-Methoxyphenyl)-1H-pyrazol-4-yl)-N-(4-methylpyrimidin-2-yl)thiazol-2-amine], the EC50 was 1 to 10 µM.

Turning to `Cc1cccc(-c2n[nH]cc2-c2csc(Nc3nccc(C)n3)n2)c1` [Compound 1-12, N-(4-Methylpyrimidin-2-yl)-4-(3-m-tolyl-1H-pyrazol-4-yl)thiazol-2-amine], the EC50 lay within 1 to 10 µM.

Take `c1ccc(Nc2nc(-c3c[nH]nc3N3CCOCC3)cs2)nc1` [Compound 1-13, 4-(3-Morpholino-1H-pyrazol-4-yl)-N-(pyridin-2-yl)thiazol-2-amine]: the EC50 was 1 to 10 µM.

For the compound `Cc1ccnc(Nc2nc(-c3c[nH]nc3-c3cncc(C(C)(C)O)c3)cs2)n1` [Compound 1-14, 2-(5-(4-(2-(4-Methylpyrimidin-2-ylamino)thiazol-4-yl)-1H-pyrazol-3-yl)pyridin-3-yl)propan-2-ol], the EC50 was 1 to 10 µM.

Regarding `Cc1ccnc(Nc2nc(-c3c[nH]nc3-c3cccc(CCCO)c3)cs2)n1` [Compound 1-15, 3-(3-(4-(2-(4-Methylpyrimidin-2-ylamino)thiazol-4-yl)-1H-pyrazol-3-yl)phenyl)propan-1-ol], the concentration for a half-maximal effect (EC50) was in the range of 0.1 to 1 µM.

As to `Cc1ccnc(Nc2nc(-c3c[nH]nc3-c3ccc(Cl)cc3)cs2)n1` [Compound 1-16, 4-(3-(4-Chlorophenyl)-1H-pyrazol-4-yl)-N-(4-methylpyrimidin-2-yl)thiazol-2-amine], the EC50 lay in the range of 0.1 to 1 µM.

As to `Cc1ccnc(Nc2nc(-c3c[nH]nc3-c3ccc(C4CC4)cc3)cs2)n1` [Compound 1-17, 4-(3-(4-Cyclopropylphenyl)-1H-pyrazol-4-yl)-N-(4-methylpyrimidin-2-yl)thiazol-2-amine], the concentration for a half-maximal effect (EC50) was 1 to 10 µM.

As for `Cc1ccnc(Nc2nc(-c3c[nH]nc3-c3ccncc3)cs2)n1` [Compound 1-18, N-(4-Methylpyrimidin-2-yl)-4-(3-(pyridin-4-yl)-1H-pyrazol-4-yl)thiazol-2-amine], the EC50 was 1 to 10 µM.

On to `Cc1ccnc(Nc2nc(-c3c[nH]nc3-c3ccccc3C)cs2)n1` [Compound 1-19, N-(4-Methylpyrimidin-2-yl)-4-(3-o-tolyl-1H-pyrazol-4-yl)thiazol-2-amine], for which the EC50 lay within 1 to 10 µM.

For the compound `Cc1ccnc(Nc2nc(-c3c[nH]nc3-c3ccccc3OC(F)(F)F)cs2)n1` [Compound 1-20, N-(4-Methylpyrimidin-2-yl)-4-(3-(2-(trifluoromethoxy)phenyl)-1H-pyrazol-4-yl)thiazol-2-amine], the EC50 lay in the range of 1 to 10 µM.

As to `Cc1ccnc(Nc2nc(-c3c[nH]nc3-c3ccccc3Cl)cs2)n1` [Compound 1-21, 4-(3-(2-Chlorophenyl)-1H-pyrazol-4-yl)-N-(4-methylpyrimidin-2-yl)thiazol-2-amine], the 50% effective concentration (EC50) is 0.1 to 1 µM.

`Cc1ccnc(Nc2nc(-c3c[nH]nc3-c3cccc(C(N)=O)c3)cs2)n1` [Compound 1-22, 3-(4-(2-(4-Methylpyrimidin-2-ylamino)thiazol-4-yl)-1H-pyrazol-3-yl)benzamide]: the EC50 was 1 to 10 µM.

Consider `CCOc1ccccc1-c1n[nH]cc1-c1csc(Nc2nccc(C)n2)n1` [Compound 1-23, 4-(3-(2-Ethoxyphenyl)-1H-pyrazol-4-yl)-N-(4-methylpyrimidin-2-yl)thiazol-2-amine], for which the EC50 was in the range of 1 to 10 µM.

For the compound `Cc1ccnc(Nc2nc(-c3c[nH]nc3-c3ccc(F)cc3F)cs2)n1` [Compound 1-24, 4-(3-(2,4-Difluorophenyl)-1H-pyrazol-4-yl)-N-(4-methylpyrimidin-2-yl)thiazol-2-amine], the half-maximal effective concentration (EC50) lay in the range of 1 to 10 µM.

As to `Cc1ccnc(Nc2nc(-c3cn[nH]c3COC3CCC3)cs2)n1` [Compound 1-28, 4-(5-(Cyclobutoxymethyl)-1H-pyrazol-4-yl)-N-(4-methylpyrimidin-2-yl)thiazol-2-amine], the EC50 lay within 0.1 to 1 µM.

Turning to `COC(C)c1[nH]ncc1-c1csc(Nc2nccc(C)n2)n1` (stereo not drawn) [Compound 1-29, 4-(5-(1-Methoxyethyl)-1H-pyrazol-4-yl)-N-(4-methylpyrimidin-2-yl)thiazol-2-amine], the EC50 was 0.1 to 1 µM.

Regarding `COc1ccc(F)cc1-c1n[nH]cc1-c1csc(Nc2ncccn2)n1` [Compound 1-31, 4-(3-(5-Fluoro-2-methoxyphenyl)-1H-pyrazol-4-yl)-N-(pyrimidin-2-yl)thiazol-2-amine], the EC50 is less than 0.1 µM.

With `CNC(=O)c1[nH]ncc1-c1csc(Nc2nccc(C)n2)n1` [Compound 1-32, N-Methyl-4-(2-(4-methylpyrimidin-2-ylamino)thiazol-4-yl)-1H-pyrazole-5-carboxamide], the 50% effective concentration (EC50) was 1 to 10 µM.

Regarding `CC(=O)N1CCC=C(c2n[nH]cc2-c2csc(Nc3nccc(C)n3)n2)C1` [Compound 1-33, 1-(3-(4-(2-(4-Methylpyrimidin-2-ylamino)thiazol-4-yl)-1H-pyrazol-3-yl)-5,6-dihydropyridin-1(2H)-yl)ethanone], the EC50 lay in the range of 1 to 10 µM.

With `Cc1ccnc(Nc2nc(-c3cn[nH]c3-c3cc(C#N)ccc3F)cs2)n1` [Compound 1-34, 4-Fluoro-3-(4-(2-(4-methylpyrimidin-2-ylamino)thiazol-4-yl)-1H-pyrazol-5-yl)benzonitrile], the EC50 was in the range of 0.1 to 1 µM.
